Experimental data reported in patent publication US6448265B1, “Pyrazoles and pyrazolopyrimidines having CRF antagonistic activity” (Pfizer, Inc., priority 1992, dated 2002).

## COc1ccccc1C(=O)c1c(SC)nn(-c2c(Cl)cc(Cl)cc2Cl)c1N [Example 3, 5-Amino-4-(2-methoxybenzoyl)-3-methylthio-1-(2,4,6-trichlorophenyl)pyrazole]
  melting point: 200 to 202 °C

## Cc1nn(-c2c(Cl)cc(Cl)cc2Cl)c(N)c1C(=O)c1ccccc1Cl [Example 4, 5-Amino-4-(2-chlorobenzoyl)-3-methyl-1-(2,4,6-trichlorophenyl) pyrazole]
  melting point: 222 °C
